Assay results from PubChem BioAssay AID330 (DTP/NCI, 2004).
Values joined by “and” are separate entries in the source; they are usually repeats but may differ in a detail not shown here. Equal entries are not always repeated. Inconclusive results and toxic doses are left out. How the source made its calls: active means survival T/C of 150% or more; inactive means T/C below 125% in these data.

Tested on: P388 leukemia ip, CD2F1 mice, survival T/C
Experiment: NCI In Vivo Anticancer Drug Screen. Data for tumor model P388 Leukemia (intraperitoneal) in CD2F1 (CDF1) mice
Conditions: endpoint: median survival time, higher = longer survival
How it was run: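 Mice carrying the transplanted tumor received test compound or vehicle. Survival was recorded in each group, and the value is the treated-group measurement divided by that of the vehicle-treated control group.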

[1] = dose: 50.0 mg/kg/injection, schedule: Q01DX009 (ip), vehicle: Klucel (hydroxypropylcellulose) (HPC)
[2] = dose: 100.0 mg/kg/injection, schedule: Q01DX009 (ip), vehicle: Klucel (hydroxypropylcellulose) (HPC)
[3] = dose: 50.0 mg/kg/injection, schedule: Q01DX009 (ip), vehicle: saline with Tween-80
[4] = dose: 100.0 mg/kg/injection, schedule: Q01DX009 (ip), vehicle: saline with Tween-80
[5] = dose: 60.0 mg/kg/injection, schedule: Q01DX005 (ip), vehicle: saline with Tween-80
[6] = dose: 120.0 mg/kg/injection, schedule: Q01DX005 (ip), vehicle: saline with Tween-80
[7] = dose: 60.0 mg/kg/injection, schedule: Q01DX005 (ip), vehicle: Klucel (hydroxypropylcellulose) (HPC)
[8] = dose: 120.0 mg/kg/injection, schedule: Q01DX005 (ip), vehicle: Klucel (hydroxypropylcellulose) (HPC)
[9] = dose: 240.0 mg/kg/injection, schedule: Q01DX005 (ip), vehicle: Klucel (hydroxypropylcellulose) (HPC)

Measured: T/C

O=C1NC2CCCC1C(c1ccccc1Cl)NC2c1ccccc1Cl (centres undefined)
inactive: dose: 100.0 mg/kg/injection, schedule: Q04DX003 (ip), vehicle: suspension in saline 98 % of control | dose: 200.0 mg/kg/injection, schedule: Q04DX003 (ip), vehicle: suspension in saline 100 % of control | dose: 400.0 mg/kg/injection, schedule: Q04DX003 (ip), vehicle: suspension in saline 100 % of control

NN1C(=O)/C(=C\c2ccccc2)SC1=S
inactive: dose: 100.0 mg/kg/injection, schedule: Q04DX002 (ip), vehicle: Klucel (hydroxypropylcellulose) (HPC) 107 % of control | dose: 200.0 mg/kg/injection, schedule: Q04DX002 (ip), vehicle: Klucel (hydroxypropylcellulose) (HPC) 111 % of control | dose: 400.0 mg/kg/injection, schedule: Q04DX002 (ip), vehicle: Klucel (hydroxypropylcellulose) (HPC) 98 % of control

CC(=O)O[C@@H]1C[C@H]2C(C)(C)C(=O)C=C[C@]2(C)[C@H]2CC[C@]3(C)C(=CC(=O)O[C@]3(O)c3ccoc3)[C@@]21C
inactive: dose: 1.0 mg/kg/injection, schedule: Q01DX005 (ip), vehicle: Klucel (hydroxypropylcellulose) (HPC) 95 % of control | dose: 2.0 mg/kg/injection, schedule: Q01DX005 (ip), vehicle: Klucel (hydroxypropylcellulose) (HPC) 100 % of control | dose: 4.0 mg/kg/injection, schedule: Q01DX005 (ip), vehicle: Klucel (hydroxypropylcellulose) (HPC) 95 % of control | dose: 8.0 mg/kg/injection, schedule: Q01DX005 (ip), vehicle: Klucel (hydroxypropylcellulose) (HPC) 95 % of control

COC(=O)c1c[nH]c(=S)n1C
inactive: dose: 100.0 mg/kg/injection, schedule: Q04DX002 (ip), vehicle: saline 98 % of control | dose: 200.0 mg/kg/injection, schedule: Q04DX002 (ip), vehicle: saline 100 % of control | dose: 400.0 mg/kg/injection, schedule: Q04DX002 (ip), vehicle: saline 105 % of control

O=C1Nc2ccccc2/C1=C\c1ccccc1O
inactive: dose: 25.0 mg/kg/injection, schedule: Q01DX009 (ip), vehicle: Klucel (hydroxypropylcellulose) (HPC) 98 % of control | [1] 96 % of control | [2] 95 % of control | dose: 200.0 mg/kg/injection, schedule: Q01DX009 (ip), vehicle: Klucel (hydroxypropylcellulose) (HPC) 98 % of control | dose: 400.0 mg/kg/injection, schedule: Q01DX009 (ip), vehicle: Klucel (hydroxypropylcellulose) (HPC) 88 % of control

C[n+]1ccc(-c2nc(-c3cc[n+](C)cc3)nc(-c3cc[n+](C)cc3)n2)cc1
inactive: dose: 25.0 mg/kg/injection, schedule: Q01DX001 (ip), vehicle: saline with Tween-80 102 % of control | dose: 50.0 mg/kg/injection, schedule: Q01DX001 (ip), vehicle: saline with Tween-80 99 % of control | dose: 100.0 mg/kg/injection, schedule: Q01DX001 (ip), vehicle: saline with Tween-80 108 % of control

CC(CC(=O)c1ccccc1)=NCC(O)CN=C(C)CC(=O)c1ccccc1 (centres undefined)
inactive: [3] 96 % of control | [4] 94 % of control | dose: 200.0 mg/kg/injection, schedule: Q01DX009 (ip), vehicle: saline with Tween-80 93 % of control

CCOc1c(N=Nc2ccccc2)c(C)nn1C(=S)S
inactive: dose: 60.0 mg/kg/injection, schedule: Q01DX005 (ip), vehicle: Klucel + Tween-80 101 % of control | dose: 120.0 mg/kg/injection, schedule: Q01DX005 (ip), vehicle: Klucel + Tween-80 101 % of control | dose: 240.0 mg/kg/injection, schedule: Q01DX005 (ip), vehicle: Klucel + Tween-80 100 % of control

C1CCC2OCN3CCCCC3CC2C1 (centres undefined)
inactive: dose: 12.5 mg/kg/injection, schedule: Q01DX005 (ip), vehicle: saline 107 % of control and 98 % of control | dose: 25.0 mg/kg/injection, schedule: Q01DX005 (ip), vehicle: saline 99 % of control and 98 % of control | dose: 50.0 mg/kg/injection, schedule: Q01DX005 (ip), vehicle: saline 100 % of control and 111 % of control and 113 % of control | dose: 100.0 mg/kg/injection, schedule: Q01DX005 (ip), vehicle: saline 114 % of control and 118 % of control and 121 % of control

CCCCCC(CN(C)C)/C(CC(NO)c1ccccc1)=N\O (centres undefined)
inactive: [1] 106 % of control | [2] 106 % of control

NN1C(=O)c2ccc3c4c(ccc(c24)C1=O)CC3
inactive: dose: 50.0 mg/kg/injection, schedule: Q01DX009 (ip), vehicle: suspension in saline 91 % of control | dose: 100.0 mg/kg/injection, schedule: Q01DX009 (ip), vehicle: suspension in saline 102 % of control | dose: 200.0 mg/kg/injection, schedule: Q01DX009 (ip), vehicle: suspension in saline 88 % of control | dose: 400.0 mg/kg/injection, schedule: Q01DX009 (ip), vehicle: suspension in saline 99 % of control

O=c1c2ccccc2c(Br)c(Br)c2ccccc12
inactive: [5] 106 % of control | [6] 110 % of control | dose: 240.0 mg/kg/injection, schedule: Q01DX005 (ip), vehicle: saline with Tween-80 109 % of control

O=NN1CC23C=CCCC2(CCCC3)C1 (centres undefined)
inactive: dose: 100.0 mg/kg/injection, schedule: Q04DX003 (ip), vehicle: Klucel (hydroxypropylcellulose) (HPC) 113 % of control | dose: 200.0 mg/kg/injection, schedule: Q04DX003 (ip), vehicle: Klucel (hydroxypropylcellulose) (HPC) 114 % of control | dose: 400.0 mg/kg/injection, schedule: Q04DX003 (ip), vehicle: Klucel (hydroxypropylcellulose) (HPC) 104 % of control

O=C1OCC=C1Sc1ccccc1
inactive: [5] 106 % of control | [6] 108 % of control

Cc1cc(NC(=O)Nc2cc(Cl)ccc2C)no1
inactive: [7] 87 % of control | [8] 93 % of control | [9] 93 % of control

N#CCCn1nc(SCc2ccccc2)c(=O)[nH]c1=O
inactive: dose: 50.0 mg/kg/injection, schedule: Q01DX005 (ip), vehicle: saline with Tween-80 95 % of control | dose: 100.0 mg/kg/injection, schedule: Q01DX005 (ip), vehicle: saline with Tween-80 94 % of control | dose: 200.0 mg/kg/injection, schedule: Q01DX005 (ip), vehicle: saline with Tween-80 92 % of control

CCCCC(CC)(CCC)CCN (centres undefined)
inactive: dose: 6.25 mg/kg/injection, schedule: Q01DX009 (ip), vehicle: suspension in saline 104 % of control | dose: 12.5 mg/kg/injection, schedule: Q01DX009 (ip), vehicle: suspension in saline 107 % of control | dose: 25.0 mg/kg/injection, schedule: Q01DX009 (ip), vehicle: suspension in saline 102 % of control

CC1(C)CC(NCCN)=CC(=S)N1
inactive: dose: 50.0 mg/kg/injection, schedule: Q01DX005 (ip), vehicle: Klucel (hydroxypropylcellulose) (HPC) 98 % of control | dose: 100.0 mg/kg/injection, schedule: Q01DX005 (ip), vehicle: Klucel (hydroxypropylcellulose) (HPC) 98 % of control | dose: 200.0 mg/kg/injection, schedule: Q01DX005 (ip), vehicle: Klucel (hydroxypropylcellulose) (HPC) 104 % of control

C1CC[N-]CC1.C1CC[N-]CC1.C1CC[N-]CC1.[Cr+6].[N-]=C=O.[N-]=C=O.[N-]=C=O
inactive: dose: 100.0 mg/kg/injection, schedule: Q04DX002 (ip), vehicle: distilled water + alcohol 99 % of control | dose: 200.0 mg/kg/injection, schedule: Q04DX002 (ip), vehicle: distilled water + alcohol 96 % of control | dose: 400.0 mg/kg/injection, schedule: Q04DX002 (ip), vehicle: distilled water + alcohol 89 % of control

CCOP(=O)(CC=O)OCC
inactive: dose: 60.0 mg/kg/injection, schedule: Q01DX005 (ip), vehicle: saline 95 % of control | dose: 120.0 mg/kg/injection, schedule: Q01DX005 (ip), vehicle: saline 100 % of control | dose: 240.0 mg/kg/injection, schedule: Q01DX005 (ip), vehicle: saline 101 % of control

CC(C)=CCc1c2ccoc2c(O)c2oc(=O)ccc12
inactive: dose: 25.0 mg/kg/injection, schedule: Q01DX009 (ip), vehicle: saline with Tween-80 106 % of control | [3] 105 % of control | [4] 105 % of control

C[n+]1ccc2ccccc2c1SC1CCC2CC3CC2C1C3 (centres undefined)
inactive: dose: 7.5 mg/kg/injection, schedule: Q01DX005 (ip), vehicle: saline with Tween-80 106 % of control | dose: 15.0 mg/kg/injection, schedule: Q01DX005 (ip), vehicle: saline with Tween-80 110 % of control

Cc1n[nH]c(=O)n2c1nc1ccccc12
inactive: [7] 95 % of control | [8] 95 % of control | [9] 92 % of control

CC1CCC2(C(=O)O)CCC3(C)C(=CCC4C5(C)CCC(OC(=O)/C=C/c6ccccc6)C(C)(C)C5CCC43C)C2C1C (centres undefined)
inactive: dose: 7.44 mg/kg/injection, schedule: Q01DX009 (ip), vehicle: Klucel (hydroxypropylcellulose) (HPC) 107 % of control | dose: 14.88 mg/kg/injection, schedule: Q01DX009 (ip), vehicle: Klucel (hydroxypropylcellulose) (HPC) 100 % of control | dose: 29.76 mg/kg/injection, schedule: Q01DX009 (ip), vehicle: Klucel (hydroxypropylcellulose) (HPC) 101 % of control
